12 compounds from patent publication US12371428B2 (Exelixis, Inc., priority 2019, dated 2025) can be followed below.

pIC50: −log10 of the molar value.

For assay [1], the target named is Human KDR (residues K790-V1356) (Homo sapiens (Human), UniProt P35968). Nature of the assay: Human KDR kinase assay, 33P-phosphoryl transfer radiometric (Example B-1, KinaseProfiler). In kind it is biochemical. Particulars: protocol of Example B-1 (compounds 21-27, 41-47, 99, 104). As to the method: Kinase activity and compound inhibition were investigated using the ^33P-Phosphoryl transfer radiometric kinase assay, performed using the KinaseProfiler™ service of Eurofins Pharma Discovery Services UK Limited. Dose-response experiments were performed using nine compound concentrations in a 96-well microtiter plate. For each assay, all compounds were prepared to a 50× final assay concentration (50 μM) in 100% DMSO, then diluted in a half-log series, with the final top concentration at 1 μM. This working stock of the compound was added to the assay well as the first component in the reaction, followed by the remaining components as detailed in the following assay protocols below. The positive control wells (100% kinase activity) contain all components of the reaction including 2% DMSO (control for solvent effects), except the compound of interest. Blank wells contain all components of the reaction, with the reference inhibitor, staurosporine. This reference compound was used to abolish kinase activity and generated the 0% kinase activity base-line. IC50 values were calculated by nonlinear regression analysis using the sigmoidal dose-response (variable slope) curve fit on XLFit version 5.3 (ID Business Solutions).
Example B-1: Human KDR (residues K790-V1356, 55 nM) was incubated with 8 mM MOPS pH 7.0, 0.2 mM EDTA, 0.33 mg/mL myelin basic protein, 10 mM magnesium acetate, and 10 μM [γ-^33P-ATP]. The reaction was initiated by the addition of the Mg/ATP mix. After incubation for 40 minutes at room temperature, the reaction was stopped by the addition of phosphoric acid to a concentration of 0.5%. A reaction aliquot of 10 μL was then spotted onto a P30 filtermat and washed four times for 4 minutes in 0.425% phosphoric acid and once in methanol prior to drying and scintillation counting. Incorporated ^33P was measured using the Wallac Microbeta scintillation counter (Perkin Elmer).

Assay [2] deals with AXL (phospho-AXL, Gas6-stimulated A-172 glioblastoma cells) (Homo sapiens (Human), UniProt P30530). Put plainly: AXL autophosphorylation ELISA in A-172 cells (Example E). In kind it is cell-based. Particulars: cellular activity; AXL autophosphorylation ELISA in A-172 cells; read-out: Axl IC50. The method in brief: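 Phospho-AXL was measured by ELISA in lysates of Gas6-stimulated A-172 cells, starved 24 h in serum-free medium and exposed 1 h to an 8-point compound dilution at 0.3% DMSO.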
In general terms: In an ELISA, binding on a coated surface is turned into a signal by an enzyme label.

Sequence of Human KDR (residues K790-V1356) (P35968 790-1356): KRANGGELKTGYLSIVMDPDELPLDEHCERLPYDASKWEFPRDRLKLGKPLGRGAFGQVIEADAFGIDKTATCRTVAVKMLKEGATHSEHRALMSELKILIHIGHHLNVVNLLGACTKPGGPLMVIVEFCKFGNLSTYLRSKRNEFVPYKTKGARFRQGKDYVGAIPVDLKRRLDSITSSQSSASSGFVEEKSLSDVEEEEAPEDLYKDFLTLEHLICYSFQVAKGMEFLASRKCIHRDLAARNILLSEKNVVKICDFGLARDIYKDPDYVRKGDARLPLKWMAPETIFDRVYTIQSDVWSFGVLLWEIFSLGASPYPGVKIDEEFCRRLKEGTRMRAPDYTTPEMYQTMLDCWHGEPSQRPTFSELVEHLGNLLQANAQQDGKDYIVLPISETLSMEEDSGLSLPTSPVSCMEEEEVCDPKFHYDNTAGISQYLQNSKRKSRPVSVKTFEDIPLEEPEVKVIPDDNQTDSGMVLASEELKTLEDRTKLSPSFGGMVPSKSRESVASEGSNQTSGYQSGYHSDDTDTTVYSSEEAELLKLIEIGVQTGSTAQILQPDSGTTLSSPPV
Sequence of AXL (phospho-AXL, Gas6-stimulated A-172 glioblastoma cells) (P30530 26-894): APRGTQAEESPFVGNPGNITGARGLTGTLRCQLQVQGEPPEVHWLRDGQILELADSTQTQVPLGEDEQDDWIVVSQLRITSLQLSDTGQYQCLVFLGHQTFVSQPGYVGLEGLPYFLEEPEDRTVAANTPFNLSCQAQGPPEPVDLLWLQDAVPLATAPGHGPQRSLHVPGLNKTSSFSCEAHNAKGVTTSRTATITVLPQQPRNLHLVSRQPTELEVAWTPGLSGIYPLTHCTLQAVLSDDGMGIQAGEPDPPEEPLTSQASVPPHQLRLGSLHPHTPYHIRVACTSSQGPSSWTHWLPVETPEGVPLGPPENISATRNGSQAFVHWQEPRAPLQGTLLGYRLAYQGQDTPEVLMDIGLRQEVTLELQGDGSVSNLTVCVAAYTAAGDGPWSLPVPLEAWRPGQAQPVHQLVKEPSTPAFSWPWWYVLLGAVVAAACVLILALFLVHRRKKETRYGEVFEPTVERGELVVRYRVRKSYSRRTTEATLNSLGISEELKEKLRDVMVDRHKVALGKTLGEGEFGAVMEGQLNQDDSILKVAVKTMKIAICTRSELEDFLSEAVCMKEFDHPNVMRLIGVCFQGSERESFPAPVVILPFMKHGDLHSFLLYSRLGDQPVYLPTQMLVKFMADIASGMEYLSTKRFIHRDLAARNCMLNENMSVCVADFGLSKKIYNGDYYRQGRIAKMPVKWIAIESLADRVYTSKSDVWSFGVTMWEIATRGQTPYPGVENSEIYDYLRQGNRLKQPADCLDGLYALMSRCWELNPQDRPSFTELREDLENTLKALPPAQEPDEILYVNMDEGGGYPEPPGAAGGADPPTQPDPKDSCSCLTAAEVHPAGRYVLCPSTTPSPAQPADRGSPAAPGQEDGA

In assay [1], `COc1cc2nccc(Oc3ccc(NC(=O)c4cn(C(C)C)c(C)c(-c5ccc(F)cc5)c4=O)cc3F)c2nc1OC` [Compound 21, N-[4-[(6,7-Dimethoxy-1,5-naphthyridin-4-yl)oxy]-3-fluorophenyl]-5-(4-fluorophenyl)-6-methyl-4-oxo-1-propan-2-ylpyridine-3-carboxamide] had a pIC50 of over 7.00. The same measure, in the same setting: under `COc1cc2nccc(Oc3ccc(NC(=O)c4cn(C(C)C)c(C)c(-c5ccc(F)cc5)c4=O)cc3F)c2cc1OC` [Compound 22, N-[4-(6,7-Dimethoxyquinolin-4-yl)oxy-3-fluorophenyl]-5-(4-fluorophenyl)-6-methyl-4-oxo-1-propan-2-ylpyridine-3-carboxamide] stands over 7.00; under `COc1cc2nccc(Oc3ccc(NC(=O)c4cn(C(C)C)c(C)c(-c5ccc(Cl)c(Cl)c5)c4=O)cc3F)c2cc1OC` [Compound 23, 5-(3,4-Dichlorophenyl)-N-[4-(6,7-dimethoxyquinolin-4-yl)oxy-3-fluorophenyl]-6-methyl-4-oxo-1-propan-2-ylpyridine-3-carboxamide], over 7.00. The same measure, in the same setting: then `COc1cc2nccc(Oc3ccc(NC(=O)c4cn(C(C)C)c(C)c(-c5ccc(F)c(Cl)c5)c4=O)cc3F)c2nc1OC` [Compound 24, 5-(3-Chloro-4-fluorophenyl)-N-[4-[(6,7-dimethoxy-1,5-naphthyridin-4-yl)oxy]-3-fluorophenyl]-6-methyl-4-oxo-1-propan-2-ylpyridine-3-carboxamide], with over 7.00. On the same count and under the same terms, then `COc1cc2nccc(Oc3ccc(NC(=O)c4cn(C(C)C)c(C)c(-c5ccc(Cl)c(Cl)c5)c4=O)cc3F)c2nc1OC` [Compound 25, 5-(3,4-Dichlorophenyl)-N-[4-[(6,7-dimethoxy-1,5-naphthyridin-4-yl)oxy]-3-fluorophenyl]-6-methyl-4-oxo-1-propan-2-ylpyridine-3-carboxamide], with over 7.00. `COc1cc2nccc(Oc3ccc(NC(=O)c4cn(C5CCCC5)c(C)c(-c5ccc(F)cc5)c4=O)cc3F)c2nc1OC` [Compound 26] gave a pIC50 in assay [1] of over 7.00.

Turning to `COc1cc2nccc(Oc3ccc(NC(=O)c4cn(C5CCCC5)c(C)c(-c5ccc(F)c(Cl)c5)c4=O)cc3F)c2nc1OC` [Compound 27, 5-(3-Chloro-4-fluorophenyl)-1-cyclopentyl-N-[4-[(6,7-dimethoxy-1,5-naphthyridin-4-yl)oxy]-3-fluorophenyl]-6-methyl-4-oxopyridine-3-carboxamide], in assay [1], the pIC50 is over 7.00. The same measure, in the same setting: then `COc1cc2nccc(Oc3ccc(NC(=O)c4cn(C5CC5)cc(-c5ccc(F)cc5)c4=O)cc3F)c2nc1OC` [Compound 41, 1-Cyclopropyl-N-[4-[(6,7-dimethoxy-1,5-naphthyridin-4-yl)oxy]-3-fluorophenyl]-5-(4-fluorophenyl)-4-oxopyridine-3-carboxamide], with over 7.00; and `COc1cc2nccc(Oc3ccc(NC(=O)c4cncc(-c5ccc(F)cc5)c4O)cc3F)c2nc1OC` [Compound 42, N-[4-[(6,7-Dimethoxy-1,5-naphthyridin-4-yl)oxy]-3-fluorophenyl]-5-(4-fluorophenyl)-4-hydroxypyridine-3-carboxamide], with over 7.00; and `COc1cc2nccc(Oc3ccc(NC(=O)c4cn(C(C)C)cc(-c5ccc(F)cc5)c4=O)cc3F)c2cc1OC` [Compound 43, N-[4-(6,7-Dimethoxyquinolin-4-yl)oxy-3-fluorophenyl]-5-(4-fluorophenyl)-4-oxo-1-propan-2-ylpyridine-3-carboxamide], with over 7.00. `COc1cc2nccc(Oc3ccc(NC(=O)c4cn(C(C)C)cc(-c5ccc(F)cc5)c4=O)cc3F)c2nc1OC` [Compound 44, N-[4-[(6,7-Dimethoxy-1,5-naphthyridin-4-yl)oxy]-3-fluorophenyl]-5-(4-fluorophenyl)-4-oxo-1-propan-2-ylpyridine-3-carboxamide]: in assay [1], the pIC50 was over 7.00.

In the case of `COc1cc2nccc(Oc3ccc(NC(=O)c4cnc(SC(C)C)n(-c5ccc(F)cc5)c4=O)cc3)c2cc1OC` [Compound 539, N-[4-(6,7-dimethoxyquinolin-4-yl)oxyphenyl]-1-(4-fluorophenyl)-6-oxo-2-propan-2-ylsulfanylpyrimidine-5-carboxamide], in assay [2], the pIC50 was over 7.00.

As usually defined, the pIC50 is −log10 of the IC50, conventionally taken in molar units.
